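Results reflect a 48-hour exposure of cells in 96-well plates to compound at five concentrations. TGI is the concentration that stops growth completely.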
What was measured:
Assay in all cases: NCI tumour cell line growth inhibition, 48 h
[1] = test system: LOX IMVI melanoma
[2] = test system: NCI-H460 lung
[3] = test system: IGROV1 ovarian
[4] = test system: OVCAR-8 ovarian
[5] = test system: K-562 leukemia
[6] = test system: 786-0 renal
[7] = test system: COLO 205 colon
[8] = test system: MDA-N
[9] = test system: CCRF-CEM leukemia
[10] = test system: HOP-62 NSCLC
[11] = test system: OVCAR-5 ovarian
[12] = test system: SF-268 CNS
[13] = test system: SNB-75 CNS
[14] = test system: UACC-62 melanoma
[15] = test system: SN12C renal
[16] = test system: A549 NSCLC
[17] = test system: NCI/ADR-RES ovarian
[18] = test system: HL-60(TB) leukemia
[19] = test system: KM12 colon
[20] = test system: SR leukemia
[21] = test system: ACHN renal
[22] = test system: BT-549 breast
[23] = test system: HOP-92 NSCLC
[24] = test system: HS 578T breast
[25] = test system: MDA-MB-231 breast
[26] = test system: HT29 colon
[27] = test system: UACC-257 melanoma
[28] = test system: U251 CNS
[29] = test system: A498 renal
[30] = test system: NCI-H522 lung
[31] = test system: UO-31 renal
[32] = test system: TK-10 renal
[33] = test system: SK-MEL-28 melanoma
[34] = test system: OVCAR-4 ovarian
[35] = test system: PC-3 prostate
[36] = test system: SK-OV-3 ovarian
[37] = test system: SF-539 CNS
[38] = test system: M14 melanoma
[39] = test system: MDA-MB-435
[40] = test system: HCT-116 colon
[41] = test system: T-47D breast
[42] = test system: EKVX NSCLC
[43] = test system: RPMI-8226 leukemia
[44] = test system: DU-145 prostate
[45] = test system: NCI-H23 lung
[46] = test system: SW-620 colon
[47] = test system: MCF7 breast
[48] = test system: SNB-19 CNS
[49] = test system: HCC-2998 colon
[50] = test system: CAKI-1 renal
[51] = test system: RXF 393 renal
[52] = test system: OVCAR-3 ovarian
[53] = test system: SK-MEL-5 melanoma
[54] = test system: MALME-3M melanoma
[55] = test system: SK-MEL-2 melanoma
[56] = test system: NCI-H226 lung
[57] = test system: SF-295 CNS
[58] = test system: HCT-15 colon

Compound: COc1ccc(C=Nc2c(O)ccc3ccccc23)cc1OC
- TGI [1]: > 100 µM
- TGI [2]: > 100 µM
- TGI [3]: > 100 µM
- TGI [4]: > 100 µM
- TGI [5]: > 100 µM
- TGI [6]: > 100 µM
- TGI [7]: > 100 µM
- TGI [8]: 35.1 µM
- TGI [9]: > 100 µM
- TGI [10]: > 100 µM
- TGI [11]: > 100 µM
- TGI [12]: > 100 µM
- TGI [13]: > 100 µM
- TGI [14]: > 100 µM
- TGI [15]: > 100 µM
- TGI [16]: > 100 µM
- TGI [17]: > 100 µM
- TGI [18]: > 100 µM
- TGI [19]: > 100 µM
- TGI [20]: > 100 µM
- TGI [21]: > 100 µM
- TGI [22]: > 100 µM
- TGI [23]: 59 µM
- TGI [24]: > 100 µM
- TGI [25]: > 100 µM
- TGI [26]: > 100 µM
- TGI [27]: > 100 µM
- TGI [28]: > 100 µM
- TGI [29]: > 100 µM
- TGI [30]: 64.2 µM
- TGI [31]: > 100 µM
- TGI [32]: > 100 µM
- TGI [33]: > 100 µM
- TGI [34]: > 100 µM
- TGI [35]: > 100 µM
- TGI [36]: > 100 µM
- TGI [37]: > 100 µM
- TGI [38]: > 100 µM
- TGI [39]: 33.4 µM
- TGI [40]: > 100 µM
- TGI [41]: > 100 µM
- TGI [42]: > 100 µM
- TGI [43]: > 100 µM
- TGI [44]: > 100 µM
- TGI [45]: > 100 µM
- TGI [46]: > 100 µM
- TGI [47]: > 100 µM
- TGI [48]: > 100 µM
- TGI [49]: > 100 µM
- TGI [50]: > 100 µM
- TGI [51]: > 100 µM
- TGI [52]: 70.9 µM
- TGI [53]: > 100 µM
- TGI [54]: 41.2 µM
- TGI [55]: > 100 µM
- TGI [56]: > 100 µM
- TGI [57]: > 100 µM
- TGI [58]: > 100 µM

— PubChem BioAssay (NCI)
